Experimental findings from PubChem BioAssay (NCI) are described below.

Among the test systems are SF-268 CNS; SK-MEL-2 melanoma; HOP-62 NSCLC; M14 melanoma; MOLT-4 leukemia; MCF7 breast; T-47D breast; UACC-62 melanoma; DU-145 prostate; TK-10 renal.
Common to all, as to experiment: DTP human tumour cell line panel, 48 h

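Method: 48-hour compound exposure of cells in 96-well plates, five concentrations, linear interpolation of endpoints. GI50 is the concentration that inhibits growth by half. TGI: total growth inhibition.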 A value given as a limit tells only on which side of the number the result lay.

With `OC(c1ccc(C(F)(F)F)cc1)C(F)(F)c1nc2ccccc2o1` (stereo not given), the total growth inhibition concentration (TGI) in the experiment with SF-268 CNS, in the experiment on SK-MEL-2 melanoma, with HOP-62 NSCLC, in the experiment on M14 melanoma, with MOLT-4 leukemia and in the experiment with MCF7 breast was above 100 µM throughout. The concentration for total growth inhibition (TGI) with T-47D breast, in the experiment on UACC-62 melanoma, in the experiment with DU-145 prostate and in the experiment on TK-10 renal was above 100 µM throughout.
Take `COc1ccc(/C=C2\CCS(=O)(=O)c3ccccc3C2=O)cc1`: the TGI is 98.2 µM in the experiment with SF-268 CNS; 96.4 µM in the experiment with SK-MEL-2 melanoma; above 100 µM in the experiment on HOP-62 NSCLC; above 100 µM with M14 melanoma; 65.2 µM in the experiment with MOLT-4 leukemia; above 100 µM in the experiment with MCF7 breast. For the same compound, the TGI in the experiment on T-47D breast came to 74.3 µM; with UACC-62 melanoma, 42.4 µM; in the experiment with DU-145 prostate it was 61 µM; with TK-10 renal, 61.6 µM.
On to `COC(=O)C1(C#N)C(C)(C)N=C(c2ccccc2)C12CCCCC2` (stereo not given), for which the concentration for total growth inhibition (TGI) with SF-268 CNS, in the experiment on SK-MEL-2 melanoma, in the experiment with HOP-62 NSCLC, with M14 melanoma, in the experiment on MOLT-4 leukemia and in the experiment on MCF7 breast was above 100 µM each time. The TGI with T-47D breast, in the experiment on UACC-62 melanoma, in the experiment with DU-145 prostate and in the experiment with TK-10 renal was above 100 µM each time.
In the case of `Cc1cc(Cc2cc(C)c(NC(=O)C(=O)C3CCC4=C(SC5C=CC=CC5N4)C3=O)c(C(C)C)c2)cc(C(C)C)c1NC(=O)C(=O)C1CCC2=C(SC3C=CC=CC3N2)C1=O` (stereo not given), the concentration for total growth inhibition (TGI) in the experiment on SF-268 CNS, with SK-MEL-2 melanoma, in the experiment with HOP-62 NSCLC, with M14 melanoma, in the experiment with MOLT-4 leukemia and in the experiment on MCF7 breast was above 100 µM each time. Also, the TGI in the experiment with T-47D breast, in the experiment with UACC-62 melanoma, with DU-145 prostate and in the experiment with TK-10 renal was above 100 µM each time.
`Cn1c(=O)c2c(nc3n2CCCC(=O)N3CC(O)CCl)n(C)c1=O` (stereo not given): the TGI in the experiment on SF-268 CNS, with SK-MEL-2 melanoma, in the experiment with HOP-62 NSCLC, in the experiment on M14 melanoma, in the experiment with MOLT-4 leukemia and in the experiment with MCF7 breast was above 100 µM throughout. In addition, the concentration for total growth inhibition (TGI) in the experiment with T-47D breast, with UACC-62 melanoma, in the experiment with DU-145 prostate and in the experiment with TK-10 renal was above 100 µM in each case.
For `O=c1c2cc3c(=O)n4c(cc(-c5ccccc5)c5cc(Cl)ccc54)nc3cc2nc2cc(-c3ccccc3)c3cc(Cl)ccc3n12`, the total growth inhibition concentration (TGI) in the experiment on SF-268 CNS, in the experiment with SK-MEL-2 melanoma, in the experiment on HOP-62 NSCLC, in the experiment on M14 melanoma, in the experiment with MOLT-4 leukemia and in the experiment on MCF7 breast was above 100 µM each time. Further, the TGI with T-47D breast, in the experiment on UACC-62 melanoma, in the experiment with DU-145 prostate and in the experiment on TK-10 renal was above 100 µM each time.
As for `Cc1c2c(c(O)c3c(O)cccc13)C(=O)C1(O)C(O)=C(C(=O)NCNc3ccc(C(N)=O)cn3)C(=O)C(N(C)C)C1C2` (stereo not given), the concentration for total growth inhibition (TGI) in the experiment with SF-268 CNS is 79.7 µM; with SK-MEL-2 melanoma, 34.1 µM; in the experiment with HOP-62 NSCLC, above 100 µM; with M14 melanoma, above 100 µM; in the experiment on MOLT-4 leukemia, 9.41 µM; with MCF7 breast, above 100 µM. Also, the TGI was above 100 µM in the experiment with T-47D breast, 9.59 µM with UACC-62 melanoma, 20 µM with DU-145 prostate and 49.2 µM in the experiment with TK-10 renal.
`CS(=O)(=O)c1ccc(N=C/C=C/Nc2ccc(S(C)(=O)=O)cc2)cc1`: the total growth inhibition concentration (TGI) with SF-268 CNS, in the experiment on SK-MEL-2 melanoma, in the experiment with HOP-62 NSCLC, with M14 melanoma, in the experiment with MOLT-4 leukemia and in the experiment with MCF7 breast was above 100 µM in each case. The TGI with T-47D breast, in the experiment with UACC-62 melanoma, in the experiment on DU-145 prostate and in the experiment on TK-10 renal was above 100 µM in each case.
`COc1ccc(Cc2nnc(Nc3ccc(Br)cc3)[nH]c2=O)cc1OC`: the TGI is above 100 µM in the experiment on SF-268 CNS; above 100 µM in the experiment with SK-MEL-2 melanoma; above 95.8 µM in the experiment on HOP-62 NSCLC; above 100 µM in the experiment with M14 melanoma; above 100 µM in the experiment with MOLT-4 leukemia; above 100 µM in the experiment with MCF7 breast. For the same compound, the TGI with T-47D breast, with UACC-62 melanoma, with DU-145 prostate and in the experiment on TK-10 renal was above 100 µM throughout.
In the case of `COc1ccccc1C1ON=C(c2ccc([N+](=O)[O-])cc2)N1C12CC3CC(CC(C3)C1)C2` (stereo not given), the concentration for total growth inhibition (TGI) in the experiment on SF-268 CNS is above 100 µM; in the experiment with SK-MEL-2 melanoma, above 100 µM; in the experiment on HOP-62 NSCLC, 71.9 µM; in the experiment on M14 melanoma it was above 100 µM; in the experiment on MOLT-4 leukemia, above 100 µM; in the experiment with MCF7 breast, above 100 µM. The TGI with T-47D breast, in the experiment with UACC-62 melanoma, in the experiment with DU-145 prostate and in the experiment with TK-10 renal was above 100 µM each time.
`O=C(Nc1ccc(-n2ccc3c(NC(=O)c4ccccc4)ncnc32)cc1)Nc1ccc(Cl)c(Cl)c1`: the GI50 is 4.22 µM with SF-268 CNS; 5.2 µM with SK-MEL-2 melanoma; 1850 nM in the experiment with HOP-62 NSCLC; 2420 nM in the experiment on M14 melanoma; 2750 nM in the experiment on MOLT-4 leukemia; 1900 nM in the experiment with MCF7 breast. Besides, the GI50 with T-47D breast is 3.32 µM; in the experiment with UACC-62 melanoma, 6.34 µM; in the experiment with DU-145 prostate, 1900 nM; in the experiment with TK-10 renal it was 1440 nM. The total growth inhibition concentration (TGI) in the experiment on SF-268 CNS turned out to be 12.9 µM; with SK-MEL-2 melanoma, 12.9 µM; in the experiment with HOP-62 NSCLC, 7.44 µM; in the experiment with M14 melanoma, 8.11 µM; in the experiment with MOLT-4 leukemia, 12.9 µM; in the experiment with MCF7 breast, 8.25 µM. Further, the TGI with T-47D breast amounted to 11.7 µM; in the experiment with UACC-62 melanoma it was 13.1 µM; in the experiment on DU-145 prostate it was 6.31 µM; in the experiment on TK-10 renal, 3.46 µM.
With `O=c1[nH]nc(Cc2c[nH]c3ccccc23)o1`, the TGI with SF-268 CNS, in the experiment on SK-MEL-2 melanoma, in the experiment on HOP-62 NSCLC, in the experiment on M14 melanoma, in the experiment on MOLT-4 leukemia and in the experiment with MCF7 breast was above 100 µM in each case. In addition, the TGI with T-47D breast, in the experiment with UACC-62 melanoma, in the experiment on DU-145 prostate and in the experiment on TK-10 renal was above 100 µM each time.
